According to paper PMC4806491, “The milk-derived fusion peptide, ACFP, suppresses the growth of primary human ovarian cancer cells by regulating apoptotic gene expression and signaling pathways” (BMC Cancer, 2016):
Like-named read-outs stand apart in the source and are kept apart here. Positions of bridges follow the written chain, without caps; N, C: chain ends. Residues, ends and D or L forms follow the SMILES beside them.

How the values were obtained:
[1] = system: primary ovarian cancer cells; experiment: Western blot of Bcl-xl, Bax, Akt, Caspase-3, CDC25C and CyclinB1 proteins; type: cell-based, human; details: 48 h
Description: Proteins were isolated from primary ovarian cancer cells harvested after ACFP treatment, separated by SDS-PAGE and transferred to PVDF membrane using the standard protocol. After blocking with 5 % (w/v) dry skim milk, membranes were incubated with primary antibodies (mouse monoclonal Bcl-xl, Bax, Akt, Caspase-3, CDC25C, CyclinB1 and β-Actin antibodies, 1:1000 dilution) according to the manufacturer’s instructions and later incubated with a horseradish peroxidase conjugated secondary antibody (goat anti-mouse IgG, 1:8000 dilution). The proteins were detected with the enhanced chemiluminescence (ECL) system followed by exposure to X-ray film. The β-Actin was used as a loading control. Two independent experiments were performed. Digital images were captured by Gel DocTM gel documentation system (Bio-Rad, USA) and intensities were quantified using Quantity-One software version 4.62 (Bio-Rad, USA).

[2] = system: primary ovarian cancer cells; details: High dose 5×10^-3 g/L, 48 h
Description: We utilized cDNA microarrays to observe the effect of ACFP on gene expression in primary ovarian cancer cells. Cells were treated with 0 (the vehicle group, as control), 5 × 10^6 g/L and 5 × 10^3 g/L ACFP, respectively, and cultured for 48 h at 37 °C in 5 % CO2. Cells were later digested and collected for total RNA extraction using Trizol. The RNA concentrations and purities were detected with a spectrophotometer. The experiments were performed in duplicate on a single total RNA preparation from the cells. Signal values were presented as the mean value of two replicate experiments. RNA samples were used to generate human whole genome expression profiling microarray (Yeli Bioscience Co., Ltd.; Shanghai, China). RNA was subsequently converted into digoxigenin-labeled complementary RNA and hybridized to a human genome microarray system (Human OneArray Microarray, from Phalanx Biotech Group, Taiwan). The chips were scanned by a GeeDom® LuxScan 10 K microarray scanner. LuxScan3.0 software was used to extract probe fluorescence signals and analyze images. Finally, the original data were processed by normalizing.

CC[C@H](C)[C@@H]1NC(=O)[C@H](CO)NC(=O)[C@@H]2CCCN2C(=O)[C@H](C)NC(=O)CNC(=O)[C@H](CC(C)C)NC(=O)[C@H](CCCCN)NC(=O)[C@H](CCCCN)NC(=O)[C@H](CCSC)NC(=O)[C@H](CCCNC(=N)N)NC(=O)[C@H](Cc2c[nH]c3ccccc23)NC(=O)[C@H](CCC(N)=O)NC(=O)[C@H](Cc2c[nH]c3ccccc23)NC(=O)[C@H](CCCNC(=N)N)NC(=O)[C@H](CCCNC(=N)N)NC(=O)[C@@H](NC(=O)[C@H](CCCCN)NC(=O)[C@@H](N)Cc2ccccc2)CSSC[C@@H](C(=O)N[C@H](C(=O)N[C@@H](CCCNC(=N)N)C(=O)N[C@@H](CCCNC(=N)N)C(=O)N[C@@H](C)C(=O)N[C@@H](Cc2ccccc2)C(=O)NCC(=O)NCC(=O)NCC(=O)NCC(=O)N[C@@H](CO)C(=O)N2CCC[C@H]2C(=O)NCC(=O)N2CCC[C@H]2C(=O)N[C@H](C(=O)N2CCC[C@H]2C(=O)N[C@@H](CC(N)=O)C(=O)O)[C@@H](C)CC)C(C)C)NC(=O)[C@H]([C@@H](C)O)NC1=O [ACFP] (H-FKCRRWQWRMKKLGAPSITCVRRAFGGGGSPGPIPN-OH; disulfide 3-20; N-terminus and C-terminus assumed)
protein levels of Bax and Caspase-3 ([1]; different concentrations, compared to control-treated group): elevated
protein levels of Bcl-xl, Akt, CDC25C and CyclinB1 ([1]; increasing drug concentration): gradually decreased
GTF2IP1 Ratio (ACFP/control) ([2]; NM-002970): 0.24
IGFBP5 Ratio (ACFP/control) ([2]; NM-003488): 0.23
MYLK Ratio (ACFP/control) ([2]; NM-004638): 0.23
NKX3-1 Ratio (ACFP/control) ([2]; NM-004824): 3.11
PLA2G5 Ratio (ACFP/control) ([2]; NM-005322): 0.46
POLH Ratio (ACFP/control) ([2]; NM-005429): 0.12
PSMA1 Ratio (ACFP/control) ([2]; NM-005682): 0.49
STAT5B Ratio (ACFP/control) ([2]; NM-006777): 2.03
STAT6 Ratio (ACFP/control) ([2]; NM-006778): 10.8
UPP1 Ratio (ACFP/control) ([2]; NM-007378): 0.42
TNFSF18 Ratio (ACFP/control) ([2]; NM-008995): 0.41
MAP4K4 Ratio (ACFP/control) ([2]; NM-009448): 0.41
BTF/BCLAF1 Ratio (ACFP/control) ([2]; NM-009774): 2.79
TMEFF1 Ratio (ACFP/control) ([2]; NM-016522): 7.91
RAB18 Ratio (ACFP/control) ([2]; NM-022931): 0.25
TCF/LEF1 Ratio (ACFP/control) ([2]; NM-051176): 0.35
PINX1 Ratio (ACFP/control) ([2]; NM-054984): 0.47
RINT-1 Ratio (ACFP/control) ([2]; NM-060561): 0.17
C17orf37 Ratio (ACFP/control) ([2]; NM-084299): 0.38
ZNF512 Ratio (ACFP/control) ([2]; NM-084450): 0.47
AKT1 Ratio (ACFP/control) ([2]; NM_000207): 0.27
ARHE Ratio (ACFP/control) ([2]; NM_000390): 3.39
BAG1 Ratio (ACFP/control) ([2]; NM_000573): 0.33
BAX Ratio (ACFP/control) ([2]; NM_000581): 6.35
BCL-xl Ratio (ACFP/control) ([2]; NM_000598): 0.19
C1QG Ratio (ACFP/control) ([2]; NM_000714): 2.68
CASP3 Ratio (ACFP/control) ([2]; NM_000836): 5.34
CCNB1 Ratio (ACFP/control) ([2]; NM_000891, cyclinB1): 0.21
TNFRSF8 Ratio (ACFP/control) ([2]; NM_000943, first entry): 3.22
TNFRSF8 Ratio (ACFP/control) ([2]; NM_000943, second entry): 3.22
CDC25C Ratio (ACFP/control) ([2]; NM_000995): 0.32
CDKN1A Ratio (ACFP/control) ([2]; NM_001026): 6.58
CDKN1A/p21 Ratio (ACFP/control) ([2]; NM_001026, second entry): 3.58
CKS2 Ratio (ACFP/control) ([2]; NM_001164): 8.95
DVL1 Ratio (ACFP/control) ([2]; NM_001855): 2.46
GRK4 Ratio (ACFP/control) ([2]; NM_002868): 0.37
GRK5 Ratio (ACFP/control) ([2]; NM_002869): 0.47
GRK6 Ratio (ACFP/control) ([2]; NM_002870): 0.26
GSTM4 Ratio (ACFP/control) ([2]; NM_002948): 2.72
GSTM5 Ratio (ACFP/control) ([2]; NM_002949): 4.84
IRF7 Ratio (ACFP/control) ([2]; NM_003665): 4.50
ITGA5 Ratio (ACFP/control) ([2]; NM_003678): 0.43
PKIA Ratio (ACFP/control) ([2]; NM_005569): 2.74
MAPK3/ERK1 Ratio (ACFP/control) ([2]; NM_005595): 0.35
MAPK8/JNK1 Ratio (ACFP/control) ([2]; NM_005599): 2.74
MAPK13/p38 delta Ratio (ACFP/control) ([2]; NM_005603): 3.04
PSMB8 Ratio (ACFP/control) ([2]; NM_005696): 3.24
TNFRSF1A Ratio (ACFP/control) ([2]; NM_007132, first entry): 2.15
TNFRSF1A Ratio (ACFP/control) ([2]; NM_007132, second entry): 2.08
ZNF12 Ratio (ACFP/control) ([2]; NM_007559): 3.66
BAT5 Ratio (ACFP/control) ([2]; NM_007920): 7.48
PABPN1 Ratio (ACFP/control) ([2]; NM_008106): 9.8
TNFRSF10B Ratio (ACFP/control) ([2]; NM_008795): 4.85
STK17B Ratio (ACFP/control) ([2]; NM_009262): 2.97
TRAF4 Ratio (ACFP/control) ([2]; NM_009618): 3.62
USP34 Ratio (ACFP/control) ([2]; NM_009736): 4.52
GOLGA5 Ratio (ACFP/control) ([2]; NM_009950): 2.95
SUI1 Ratio (ACFP/control) ([2]; NM_010209): 9.85
SPINT2 Ratio (ACFP/control) ([2]; NM_010653): 10.25
PIK3R5 Ratio (ACFP/control) ([2]; NM_023533): 0.44
CARD10 Ratio (ACFP/control) ([2]; NM_029775): 4.32
FLJ39616 Ratio (ACFP/control) ([2]; NM_051275): 2.53
GNG12 Ratio (ACFP/control) ([2]; NM_055970): 8.30
BCORL1 Ratio (ACFP/control) ([2]; NM_063035): 0.25
CARD14 Ratio (ACFP/control) ([2]; NM_079092): 3.06
BCL2L14 Ratio (ACFP/control) ([2]; NM_079370): 2.57
FLJ13848 Ratio (ACFP/control) ([2]; NM_079829): 9.45
SNARK Ratio (ACFP/control) ([2]; NM_081788): 3.11
C1QTNF6 Ratio (ACFP/control) ([2]; NM_114904, first entry): 6.26
C1QTNF6 Ratio (ACFP/control) ([2]; NM_114904, second entry): 6.26
